“And” between values parts separate entries of the source, which are not always exact repeats. Identical values can stand only once. Like-named read-outs stand apart in the source and are kept apart here.
What was measured:
[1] = background statement, in words; cited from earlier work
[2] = tested on: uridine phosphorylase; conditions: among the acyclouridines developed; cited from earlier work
[3] = tested on: cleavage of FdUrd in certain tumor extracts; conditions: cited from earlier work
[4] = tested on: human pancreatic carcinoma (DAN); conditions: in vitro; cited from earlier work
[5] = tested on: human lung carcinoma (LX-1); conditions: LX-1, in vitro; cited from earlier work
[6] = tested on: human pancreatic carcinoma (DAN); conditions: in vivo; cited from earlier work
[7] = tested on: human lung carcinoma (LX-1); conditions: LX-1, in vivo; cited from earlier work
[8] = target: uridine phosphorylase; assay: Inhibition of uridine phosphorylase from mouse liver (105,000×g supernatant of liver homogenate); type: biochemical; conditions: mouse liver enzyme; apparent Ki = Ki(1+[S]/Km); type of inhibition not characterized
Protocol: (§1) Testing of compounds HM-BAU and HM-BBAU as inhibitors of uridine phosphorylase was performed using 105,000×g supernatant of mouse liver and human liver homogenates. Enzyme assays were carried out as described in Niedzwicki et al., Biochem. Pharm. 31, 1857 (1982), supra. Apparent Ki values are related to Ki by the following equation: [formula] where Kis and Kii are the inhibition constants that would have been estimated from the replots of slope and intercept, respectively, of a Lineweaver-Burk plot vs [I]. If a compound is a competitive inhibitor with respect to the substrate uridine. Kii =.infin. and Kis =Ki. Therefore:
(§2) apparent Ki =Ki (1+[S]/Km)
(§3) Thus, the true Ki values would be lower than the apparent Ki values by a factor of (1+S/Km). It must be noted, however, that these compounds were not characterized with regard to the type of inhibition (i.e. competitive, non-competitive or uncompetitive), nor were they tested as substrates for uridine phosphorylase.

[9] = target: uridine phosphorylase; assay: Inhibition of uridine phosphorylase from human liver (105,000×g supernatant of liver homogenate); type: biochemical; conditions: for Ki: human liver enzyme, apparent Ki = Ki(1+[S]/Km), type of inhibition not characterized; for inhibition of human liver uridine phosphorylase, in words: compared with BAU and BBAU
Protocol: as §1, §2, §3

[10] = tested on: human pancreatic carcinoma (DAN); assay: Growth inhibition of pancreatic carcinoma DAN cells in culture by FdUrd with or without potentiator; type: cell-based; conditions: for in vitro antineoplastic activity of FdUrd with potentiator, in words: DAN cells, combination with FdUrd; for effect of potentiator alone on the growth of DAN in culture: potentiator alone at 50 μM, no FdUrd
Protocol: Determination of the activities of HM-BAU and HM-BBAU as potentiators of FdUrd anti-neoplastic activity was carried out using a human pancreatic carcinoma (DAN) in culture. Details of the procedure are described in Chu et al., supra. Table 1 summarizes the effect of HM-BAU and HM-BBAU upon the inhibitory effect of FdUrd on the growth of pancreatic DAN cells in culture.
FdUrd alone at 0.1 and 0.3 μM inhibited the cell growth by 20% and 34% respectively.

[11] = Water solubility; type: physicochemical; conditions: in words
[12] = potentiator 50 μM, added 5 minutes prior to FdUrd 0.1 μM, P < 0.001 vs control, p < 0.01 from one another
[13] = potentiator 50 μM, added 5 minutes prior to FdUrd 0.3 μM

Ki [8]	Ki [9]	water solubility [11]	SMILES	water solubility [1]	effectiveness as uridine phosphorylase inhibitor, in words [2]	inhibition of cleavage of FdUrd [3]	enhancement of antineoplastic activity of FdUrd [4]	enhancement of antineoplastic activity of FdUrd [5]	enhancement of antineoplastic activity of FdUrd [6]	enhancement of antineoplastic activity of FdUrd [7]	inhibition of human liver uridine phosphorylase, in words [9]	in vitro antineoplastic activity of FdUrd with potentiator, in words [10]	% Growth Inhibition of DAN cells in culture [10, 12]	% Growth Inhibition of DAN cells in culture [10, 13]	effect of potentiator alone on the growth of DAN in culture [10]	further results
–	–	–	O=c1[nH]c(=O)n(COCCO)cc1Cc1ccccc1 [BAU, 5-benzylacyclouridine]	not very water soluble	particularly effective	inhibit the cleavage of FdUrd	enhance the antineoplastic activity of FdUrd	enhance the antineoplastic activity of FdUrd	enhance the antineoplastic activity of FdUrd	enhance the antineoplastic activity of FdUrd	–	–	–	–	–	–
0.32 µM	0.65 µM	water soluble	O=c1[nH]c(=O)n(COC(CO)CO)cc1Cc1cccc(OCc2ccccc2)c1 [HM-BBAU, 5-(m-Benzyloxybenzyl)-1-[(1,3-dihydroxy-2-propoxy)methyl]uracil]	–	–	–	–	–	–	–	excellent inhibitors of this enzyme and superior to BAU and BBAU	significantly potentiated	73.6 ± 0.3% and 74%	83.2 ± 1.3% and 83%	do not affect the growth of DAN in culture	% Growth Inhibition of DAN cells in culture ([10]; potentiator 50 μM, added 5 minutes prior to FdUrd 0.1 μM, P < 0.001 vs control, p < 0.01 from one another, listed as HN-BBAU): 74%; % Growth Inhibition of DAN cells in culture ([10]; potentiator 50 μM, added 5 minutes prior to FdUrd 0.3 μM, listed as HN-BBAU): 83%
1.6 µM	2.5 µM	water soluble	O=c1[nH]c(=O)n(COC(CO)CO)cc1Cc1ccccc1 [HM-BAU, 5-Benzyl-1-[(1,3-dihydroxy-2-propoxy)methyl]uracil]	–	–	–	–	–	–	–	excellent inhibitors of this enzyme and superior to BAU and BBAU	significantly potentiated	63.4 ± 1.1% and 63%	67.8 ± 1.7% and 68%	do not affect the growth of DAN in culture	–
–	–	–	O=c1[nH]c(=O)n(COCCO)cc1Cc1cccc(OCc2ccccc2)c1 [BBAU, 5-benzyloxybenzylacyclouridine]	not very water soluble	particularly effective	inhibit the cleavage of FdUrd	enhance the antineoplastic activity of FdUrd	enhance the antineoplastic activity of FdUrd	enhance the antineoplastic activity of FdUrd	enhance the antineoplastic activity of FdUrd	–	–	–	–	–	–
–	–	–	O=c1[nH]c(=O)n([C@H]2C[C@H](O)[C@@H](CO)O2)cc1F [FdUrd, 5-fluoro-2'-deoxyuridine]	–	–	–	–	–	–	–	–	–	–	–	–	% Growth Inhibition of DAN cells in culture ([10]; FdUrd 0.1 μM alone, no potentiator): 20%; % Growth Inhibition of DAN cells in culture ([10]; FdUrd 0.3 μM alone, no potentiator): 34%; inhibition at 0.1 µM ([10]; Homo sapiens, FdUrd 0.1 μM alone, no potentiator): 20.2 ± 1.1%; inhibition at 0.3 µM ([10]; Homo sapiens, FdUrd 0.3 μM alone, no potentiator): 33.8 ± 1.3%; inhibition at 1 µM ([10]; Homo sapiens, FdUrd 1.0 μM alone, no potentiator): 66 ± 1.4%
